Test results taken from ChEMBL document CHEMBL3352252, “Design, synthesis and molecular modeling of biquinoline-pyridine hybrids as a new class of potential EGFR and HER-2 kinase inhibitors” (Bioorg Med Chem Lett, 2014).
pIC50: −log10 of the molar value.

What was measured:
[1] = target: Receptor tyrosine-protein kinase erbB-2 (Homo sapiens, UniProt P04626); assay: Inhibition of histidine-tagged recombinant HER2 (unknown origin) expressed in Sf9 cells assessed as reduction in enzyme autophosphorylation by DELFIA/time-resolved fluorometry
[2] = target: Epidermal growth factor receptor (Homo sapiens, UniProt P00533); assay: Inhibition of histidine-tagged recombinant EGFR cytoplasmic domain (amino acids 645-1186) (unknown origin) expressed in Sf9 cells assessed as reduction in enzyme autophosphorylation by DELFIA/time-resolved fluorometry
[3] = tested on: A549; assay: Antiproliferative activity against human A549 cells after 48 hrs by MTT assay; assay type: functional, cell-based; settings: A549, 48 h
[4] = tested on: HepG2; assay: Antiproliferative activity against human HepG2 cells after 48 hrs by MTT assay; assay type: functional, cell-based; settings: HepG2, 48 h

Sequence of Epidermal growth factor receptor (P00533 whole entry, the tested form may be a part): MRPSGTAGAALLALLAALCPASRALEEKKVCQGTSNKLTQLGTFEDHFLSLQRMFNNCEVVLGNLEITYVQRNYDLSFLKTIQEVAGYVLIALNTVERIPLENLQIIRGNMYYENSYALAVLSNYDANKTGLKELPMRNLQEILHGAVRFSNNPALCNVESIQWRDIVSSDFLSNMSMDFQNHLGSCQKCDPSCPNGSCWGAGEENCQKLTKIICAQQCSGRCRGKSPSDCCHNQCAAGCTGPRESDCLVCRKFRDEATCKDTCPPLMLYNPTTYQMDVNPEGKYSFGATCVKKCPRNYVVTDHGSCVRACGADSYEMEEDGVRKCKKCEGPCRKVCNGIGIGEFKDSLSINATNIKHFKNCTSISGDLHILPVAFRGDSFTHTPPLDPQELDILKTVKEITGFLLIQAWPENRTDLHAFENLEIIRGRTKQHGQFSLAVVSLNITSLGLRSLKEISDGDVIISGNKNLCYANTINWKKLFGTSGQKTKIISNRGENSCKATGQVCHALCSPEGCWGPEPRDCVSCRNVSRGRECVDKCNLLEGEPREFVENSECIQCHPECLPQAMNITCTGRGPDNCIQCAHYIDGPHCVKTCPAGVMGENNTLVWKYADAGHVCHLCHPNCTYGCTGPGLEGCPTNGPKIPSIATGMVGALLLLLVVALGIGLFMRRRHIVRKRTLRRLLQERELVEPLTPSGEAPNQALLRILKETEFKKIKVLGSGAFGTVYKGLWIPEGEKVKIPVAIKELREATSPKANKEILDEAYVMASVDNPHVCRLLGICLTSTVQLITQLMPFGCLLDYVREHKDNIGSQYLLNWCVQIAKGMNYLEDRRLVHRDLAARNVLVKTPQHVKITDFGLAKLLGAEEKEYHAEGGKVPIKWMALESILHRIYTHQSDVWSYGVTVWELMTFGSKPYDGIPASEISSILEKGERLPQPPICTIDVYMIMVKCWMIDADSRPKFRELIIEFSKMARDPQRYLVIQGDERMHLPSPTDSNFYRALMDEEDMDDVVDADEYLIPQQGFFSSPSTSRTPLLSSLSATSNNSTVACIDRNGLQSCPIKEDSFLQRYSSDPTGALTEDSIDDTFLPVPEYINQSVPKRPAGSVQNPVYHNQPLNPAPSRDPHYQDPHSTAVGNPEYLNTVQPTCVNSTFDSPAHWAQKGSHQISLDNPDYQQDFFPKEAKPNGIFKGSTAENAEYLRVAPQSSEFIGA
Sequence of Receptor tyrosine-protein kinase erbB-2 (P04626 whole entry, the tested form may be a part): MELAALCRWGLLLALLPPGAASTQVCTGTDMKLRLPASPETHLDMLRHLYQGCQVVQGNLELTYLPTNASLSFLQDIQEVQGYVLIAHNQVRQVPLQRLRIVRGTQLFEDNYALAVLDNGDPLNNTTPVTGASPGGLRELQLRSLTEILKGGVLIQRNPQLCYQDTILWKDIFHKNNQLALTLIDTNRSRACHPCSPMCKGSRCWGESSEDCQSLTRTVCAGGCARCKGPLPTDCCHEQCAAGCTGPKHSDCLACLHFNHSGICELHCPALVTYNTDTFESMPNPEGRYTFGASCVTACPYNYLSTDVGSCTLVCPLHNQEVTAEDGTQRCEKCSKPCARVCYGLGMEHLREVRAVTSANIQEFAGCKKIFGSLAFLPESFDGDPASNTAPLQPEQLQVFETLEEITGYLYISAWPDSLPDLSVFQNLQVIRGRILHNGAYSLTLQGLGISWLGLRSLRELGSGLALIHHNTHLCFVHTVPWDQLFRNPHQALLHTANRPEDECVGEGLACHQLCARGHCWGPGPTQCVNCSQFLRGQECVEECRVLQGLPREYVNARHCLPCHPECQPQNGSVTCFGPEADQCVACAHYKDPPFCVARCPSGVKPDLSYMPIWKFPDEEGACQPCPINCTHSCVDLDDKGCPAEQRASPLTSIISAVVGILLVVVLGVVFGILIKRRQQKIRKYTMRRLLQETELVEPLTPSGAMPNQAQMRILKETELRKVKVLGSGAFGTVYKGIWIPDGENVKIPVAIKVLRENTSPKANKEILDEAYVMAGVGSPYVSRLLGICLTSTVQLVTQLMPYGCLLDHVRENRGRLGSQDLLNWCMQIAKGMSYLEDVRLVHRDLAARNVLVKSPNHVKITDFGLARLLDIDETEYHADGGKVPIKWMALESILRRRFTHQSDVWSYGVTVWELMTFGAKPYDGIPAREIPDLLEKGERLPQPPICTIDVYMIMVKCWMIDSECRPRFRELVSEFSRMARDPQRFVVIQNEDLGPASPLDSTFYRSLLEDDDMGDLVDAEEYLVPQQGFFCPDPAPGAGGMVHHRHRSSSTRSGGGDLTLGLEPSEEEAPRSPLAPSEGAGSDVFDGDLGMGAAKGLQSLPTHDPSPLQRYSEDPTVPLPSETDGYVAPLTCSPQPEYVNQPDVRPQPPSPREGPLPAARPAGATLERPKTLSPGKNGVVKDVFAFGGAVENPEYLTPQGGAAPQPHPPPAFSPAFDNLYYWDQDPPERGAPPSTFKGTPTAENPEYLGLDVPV

SMILES	pIC50 [1]	pIC50 [2]	pIC50 [3]	pIC50 [4]
Cc1ccc2c(c1)cc(C1C(C#N)=C(N)N(c3cccnc3)C3=C1C(=O)CCC3)c1nnnn12 (stereo not drawn)	4.83	4.98	4.74	4.79
COc1ccc2c(c1)cc(C1C(C#N)=C(N)N(c3cccnc3)C3=C1C(=O)CCC3)c1nnnn12 (stereo not drawn)	5.05	5.27	4.64	4.67
COC(=O)C1=C(N)N(c2cccnc2)C2=C(C(=O)CCC2)C1c1cc2cc(C)ccc2n2nnnc12 (stereo not drawn)	5.28	5.37	5.27	5.72
COC(=O)C1=C(N)N(c2cccnc2)C2=C(C(=O)CCC2)C1c1cc2cc(OC)ccc2n2nnnc12 (stereo not drawn)	5.68	5.89	5.19	5.22
COC(=O)C1=C(N)N(c2cccnc2)C2=C(C(=O)CCC2)C1c1cc2cc(Cl)ccc2n2nnnc12 (stereo not drawn)	5.05	5.09	7.00	5.89
CCOC(=O)C1=C(N)N(c2cccnc2)C2=C(C(=O)CCC2)C1c1cc2cc(C)ccc2n2nnnc12 (stereo not drawn)	5.39	5.15	5.07	5.15
CCOC(=O)C1=C(N)N(c2cccnc2)C2=C(C(=O)CCC2)C1c1cc2cc(OC)ccc2n2nnnc12 (stereo not drawn)	6.10	6.70	4.81	4.74
CCOC(=O)C1=C(N)N(c2cccnc2)C2=C(C(=O)CCC2)C1c1cc2cc(Cl)ccc2n2nnnc12 (stereo not drawn)	4.64	4.78	5.89	5.26

Continued, values first:

pIC50 [1]	pIC50 [2]	pIC50 [3]	pIC50 [4]	SMILES
–	–	5.11	5.23	N#CC1=C(N)N(c2cccnc2)C2=C(C(=O)CCC2)C1c1cc2cc(Cl)ccc2n2nnnc12 (stereo not drawn)
5.72	5.96	5.96	5.82	COC(=O)C1=C(N)N(c2cccnc2)C2=C(C(=O)CCC2)C1c1cc2ccccc2n2nnnc12 (stereo not drawn)
6.70	7.05	6.40	7.00	CCOC(=O)C1=C(N)N(c2cccnc2)C2=C(C(=O)CCC2)C1c1cc2ccccc2n2nnnc12 (stereo not drawn)
5.28	5.32	4.89	4.96	N#CC1=C(N)N(c2cccnc2)C2=C(C(=O)CCC2)C1c1cc2ccccc2n2nnnc12 (stereo not drawn)
–	–	7.00	7.00	C#Cc1cccc(Nc2ncnc3cc(OCCOC)c(OCCOC)cc23)c1 [ERLOTINIB]
